molecular target: HIV1 protease (Human immunodeficiency virus type 1 group M subtype B, UniProt P04585); test: inhibition of HIV1 protease; type: biochemical; conditions: A. Mono-ol (X = H); read-out: IC50 against HIV1 protease, A. Mono-ol (X = H)
Description: ^a The IC50 against HIV1 protease was measured according to the
method described in U.S. Pat. No. 5,354,866, issued October 11, 1994.

Compound	IC50 [nM]
CC(C)[C@H](NC(=O)Cc1csc(N)n1)C(=O)N[C@@H](Cc1ccccc1)C[C@H](O)[C@H](Cc1ccccc1)NC(=O)[C@@H](NC(=O)Cc1csc(N)n1)C(C)C [Example 8A]	< 1
CC(C)[C@H](NC(=O)CC1NC(=O)NC1=O)C(=O)N[C@@H](Cc1ccccc1)C[C@H](O)[C@H](Cc1ccccc1)NC(=O)[C@@H](NC(=O)CC1NC(=O)NC1=O)C(C)C (stereo partly shown) [Example 7A]	< 1
CC(C)[C@H](NC(=O)CSc1ncccn1)C(=O)N[C@@H](Cc1ccccc1)C[C@H](O)[C@H](Cc1ccccc1)NC(=O)[C@@H](NC(=O)CSc1ncccn1)C(C)C [Example 10A]	< 1
COc1cc(CC(=O)N[C@H](C(=O)N[C@@H](Cc2ccccc2)C[C@H](O)[C@H](Cc2ccccc2)NC(=O)[C@@H](NC(=O)Cc2cc(OC)c(OC)c(OC)c2)C(C)C)C(C)C)cc(OC)c1OC [Example 9A]	< 1
